BindingDB's records for doi:10.1021/jm0605482 (Amgen, 2006)

Biological target: Aurora kinase B (Homo sapiens) (UniProt Q96GD4)
Test: Inhibition of Aurora1 by HTRF kinase assay

Sequence of Aurora kinase B (Homo sapiens) (Q96GD4 whole entry, looked up): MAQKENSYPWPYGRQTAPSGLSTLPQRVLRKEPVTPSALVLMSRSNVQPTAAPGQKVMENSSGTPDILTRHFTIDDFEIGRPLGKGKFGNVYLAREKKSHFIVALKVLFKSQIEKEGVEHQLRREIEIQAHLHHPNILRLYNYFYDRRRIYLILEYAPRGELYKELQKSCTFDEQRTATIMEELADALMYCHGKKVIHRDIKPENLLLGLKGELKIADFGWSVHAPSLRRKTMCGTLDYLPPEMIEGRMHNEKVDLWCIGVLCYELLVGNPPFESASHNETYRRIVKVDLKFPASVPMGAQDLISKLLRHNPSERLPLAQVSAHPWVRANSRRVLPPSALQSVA

- IC50: > 5 µM
Compound: CNc1ncc2cc(-c3cc(C(=O)Nc4cc(C(F)(F)F)ccc4OC4CCN(C)CC4)ccc3C)ccc2n1 [4-methyl-3-(2-(methylamino)quinazolin-6-yl)-N-(2-(1-methylpiperidin-4-yloxy)-5-(trifluoromethyl)phenyl)benzamide]
